Test systems include UO-31 renal; NCI-H226 lung; HOP-92 NSCLC; NCI/ADR-RES ovarian; SF-268 CNS; CAKI-1 renal; OVCAR-5 ovarian; MOLT-4 leukemia; MDA-MB-435; SR leukemia.
Common to all, as to experiment: growth of human tumour cells (NCI), 48 h

SMILES strings stand for the structures.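 Interpolation was linear, between the two tested concentrations surrounding the appropriate level; five concentrations were tested over 48 hours in 96-well plates. TGI marks complete inhibition of growth.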 Some results are limits rather than exact numbers.

Regarding `O=P(O)(O)C(O)/C=C/c1ccccc1` (stereo unspecified), the TGI in the assay with UO-31 renal, with NCI-H226 lung, in the assay on HOP-92 NSCLC, in the assay on NCI/ADR-RES ovarian, in the assay on SF-268 CNS and in the assay on CAKI-1 renal was above 100 µM throughout. For the same compound, the TGI in the assay with OVCAR-5 ovarian, with MOLT-4 leukemia and in the assay with MDA-MB-435 was above 100 µM in each case.
In the case of `O=C1c2cc3ccccc3cc2C2(c3ccc(Cl)cc3)N[C@H]3CCCC[C@@H]3N12` (stereo partly specified), the TGI with SR leukemia stood at 48.7 µM; in the assay with UO-31 renal it was 57.6 µM; in the assay on HOP-92 NSCLC, 98.5 µM; in the assay with NCI/ADR-RES ovarian, 41.6 µM; with SF-268 CNS, 39 µM; in the assay on CAKI-1 renal, 70.3 µM. Moreover, the figures for the TGI in the assay on OVCAR-5 ovarian, in the assay on MOLT-4 leukemia and with MDA-MB-435 were 60.2 µM, above 100 µM and 93 µM, respectively.
In the case of `CC[N+]1(C)CCC(O)(c2ccc(Cl)cc2)C(C(=O)c2ccc(Cl)cc2)C1` (stereo unspecified), the TGI with SR leukemia was 36.4 µM; in the assay on UO-31 renal, 34.5 µM; with NCI-H226 lung, 48.3 µM; in the assay on NCI/ADR-RES ovarian, 57.1 µM; with SF-268 CNS it was 58.8 µM; with OVCAR-5 ovarian, 33.1 µM. Also, the TGI with MOLT-4 leukemia was found to be 41.2 µM; with MDA-MB-435, 40.6 µM.
On to `Cc1ccc(/C=C/C(=O)c2c([O-])on[n+]2-c2ccccc2)cc1`, for which the TGI in the assay with SR leukemia was above 27.5 µM; in the assay with UO-31 renal, 6.24 µM; in the assay with NCI-H226 lung, above 45.6 µM; with HOP-92 NSCLC, 16.8 µM; in the assay with NCI/ADR-RES ovarian, 7.11 µM; in the assay on SF-268 CNS it was above 37.5 µM. Also, the figures for the TGI with CAKI-1 renal, in the assay on OVCAR-5 ovarian and with MOLT-4 leukemia were 3.87 µM, 15.5 µM and 6.64 µM, respectively.
As for `O=C1CCCc2c1c1c(n2Cc2ccccc2)-c2ccccc2C1=O`, the TGI in the assay with UO-31 renal was above 100 µM; in the assay with NCI-H226 lung it was 66.1 µM; in the assay with HOP-92 NSCLC, 99.7 µM; in the assay on NCI/ADR-RES ovarian, 50.1 µM; in the assay with SF-268 CNS, 64.1 µM; in the assay with CAKI-1 renal, 46.2 µM. Further, the values for the TGI in the assay on OVCAR-5 ovarian and in the assay on MDA-MB-435 were above 100 µM and 38.2 µM, respectively.
Turning to `N#Cc1[nH]c(=O)n(-c2ccc(Cl)cc2)c1N`, the TGI in the assay on SR leukemia, with NCI-H226 lung, in the assay with NCI/ADR-RES ovarian, with SF-268 CNS, with CAKI-1 renal and in the assay with OVCAR-5 ovarian was above 10 µM throughout. For the same compound, the TGI in the assay on MOLT-4 leukemia and in the assay with MDA-MB-435 was above 10 µM throughout.
In the case of `Nc1nc(Cl)cc(NCC2(CO)CCC(Cc3ccccc3)C2)n1` (stereo unspecified), the TGI is above 92.6 µM in the assay with UO-31 renal; 98.7 µM in the assay with NCI-H226 lung; above 93.8 µM in the assay on HOP-92 NSCLC; above 100 µM in the assay on NCI/ADR-RES ovarian; above 100 µM with SF-268 CNS; 95.6 µM in the assay on CAKI-1 renal. Further, the values for the TGI in the assay on OVCAR-5 ovarian, with MOLT-4 leukemia and with MDA-MB-435 were above 100 µM, 30.6 µM and 33.8 µM, respectively.
With `CN1CCC2(CC1)C(=O)N(N1CCCCCC1)C(=O)N2c1ccccc1`, the TGI in the assay on SR leukemia, in the assay on UO-31 renal, with NCI-H226 lung, in the assay on NCI/ADR-RES ovarian, in the assay on SF-268 CNS and in the assay on CAKI-1 renal was above 100 µM in each case. The TGI in the assay with OVCAR-5 ovarian, in the assay on MOLT-4 leukemia and in the assay on MDA-MB-435 was above 100 µM throughout.
For `CCOc1ccc2c(c1)/C(=C(\C(Cl)=C(Cl)Cl)[N+](=O)[O-])N2`, the TGI in the assay with UO-31 renal, with NCI-H226 lung, with NCI/ADR-RES ovarian, with SF-268 CNS, in the assay with CAKI-1 renal and in the assay with OVCAR-5 ovarian was above 100 µM each time. For the same compound, the TGI with MOLT-4 leukemia and with MDA-MB-435 was above 100 µM in each case.
Turning to `CC(NS(C)(=O)=O)c1ccccc1` (stereo unspecified), the TGI in the assay on SR leukemia, with UO-31 renal, in the assay on NCI-H226 lung, in the assay with NCI/ADR-RES ovarian, in the assay on CAKI-1 renal and in the assay with OVCAR-5 ovarian was above 100 µM in each case. Besides, the TGI in the assay on MOLT-4 leukemia and with MDA-MB-435 was above 100 µM each time.
Turning to `O=C1NC2(CCCCC2)N=C2C(Cl)CCCC12Cl` (stereo unspecified), the TGI with SR leukemia, in the assay with UO-31 renal, with NCI-H226 lung, in the assay with NCI/ADR-RES ovarian, in the assay with SF-268 CNS and in the assay on OVCAR-5 ovarian was above 100 µM throughout. Further, the TGI with MOLT-4 leukemia and with MDA-MB-435 was above 100 µM in each case.
Take `Cc1csc2nc(-c3ccc([N+](=O)[O-])cc3)c(/C=N/N=C(N)N)n12`: the TGI in the assay on UO-31 renal is 2.88 µM; with HOP-92 NSCLC, 2.22 µM; with NCI/ADR-RES ovarian, above 50.8 µM; with SF-268 CNS it was 3.29 µM; with CAKI-1 renal it was 12.6 µM; with OVCAR-5 ovarian, 2.85 µM. For the same compound, in the assay with MDA-MB-435, the TGI is 3.16 µM.
`CCOP(=O)(Nc1ccc(-c2ccccc2)cc1)OCC`: the TGI in the assay on UO-31 renal, in the assay with HOP-92 NSCLC, with NCI/ADR-RES ovarian, in the assay on SF-268 CNS, in the assay with CAKI-1 renal and with OVCAR-5 ovarian was above 100 µM throughout. The TGI in the assay on MOLT-4 leukemia and in the assay on MDA-MB-435 was above 100 µM in each case.
For `CC1CCCC2=C1C(c1ccc(Cl)cc1)n1c(s/c(=C\c3ccc(Cl)cc3)c1=O)=N2` (stereo unspecified), the TGI in the assay on UO-31 renal, in the assay with HOP-92 NSCLC, in the assay with SF-268 CNS, with CAKI-1 renal, in the assay with OVCAR-5 ovarian and with MDA-MB-435 was above 100 µM throughout.
For `CC(=O)C1=C(N=[N+]=[N-])c2cccc3cccc(c23)C1=O`, the TGI came to 29.7 µM with UO-31 renal; 64.2 µM in the assay on NCI-H226 lung; 42.8 µM in the assay on HOP-92 NSCLC; 70.9 µM with NCI/ADR-RES ovarian; 75.2 µM in the assay with SF-268 CNS; 30.7 µM in the assay with CAKI-1 renal. Further, the TGI with OVCAR-5 ovarian turned out to be 54.8 µM; in the assay on MOLT-4 leukemia, 33.2 µM; in the assay on MDA-MB-435, 48.5 µM.
Regarding `O=c1[nH]c2ccc(CC(=S)N3CCOCC3)cc2s1`, the TGI in the assay on SR leukemia, with NCI-H226 lung, with NCI/ADR-RES ovarian, with SF-268 CNS, in the assay on CAKI-1 renal and in the assay with OVCAR-5 ovarian was above 100 µM in each case. In addition, the TGI with MOLT-4 leukemia and with MDA-MB-435 was above 100 µM throughout.
